Source: publication PMC7070167, “Cell‐permeable high‐affinity tracers for Gq proteins provide structural insights, reveal distinct binding kinetics and identify small molecule inhibitors” (British Journal of Pharmacology, 2020)
Like-named read-outs stand apart in the source and are kept apart here. *1 amine or outer side, *2 acyl side, *3 side chain or, on linkers, in order; H or OH if unused. Where a SMILES comes first, the peptide text is derived from it. Bridges are numbered along the chain shown (N, C = ends). [ ]: non-standard residue; d: D form. The star is where a group is joined. Leu(3R-OH,Nα-propionyl) = CCC(=O)N[C@H](C(=O)*)[C@H](O)C(C)C; X1 = CC(C)[C@@H](O[*:3])[C@H](N[*:1])C(=O)[*:2]; NMeT = CN[C@H](C(=O)O)[C@@H](C)O; dPhLac = O=C(O)[C@H](O)Cc1ccccc1; NMeA = CN[C@@H](C)C(=O)O; NMeDha = C=C(NC)C(=O)O

Target: T1, Gq proteins (Homo sapiens, UniProt P50148)
T1 construct: Native cell membrane preparations from rat brain cortex and human blood platelets; host or cells: human platelets (intact suspension or membrane preparation)
T1 sequence (P50148 1-359): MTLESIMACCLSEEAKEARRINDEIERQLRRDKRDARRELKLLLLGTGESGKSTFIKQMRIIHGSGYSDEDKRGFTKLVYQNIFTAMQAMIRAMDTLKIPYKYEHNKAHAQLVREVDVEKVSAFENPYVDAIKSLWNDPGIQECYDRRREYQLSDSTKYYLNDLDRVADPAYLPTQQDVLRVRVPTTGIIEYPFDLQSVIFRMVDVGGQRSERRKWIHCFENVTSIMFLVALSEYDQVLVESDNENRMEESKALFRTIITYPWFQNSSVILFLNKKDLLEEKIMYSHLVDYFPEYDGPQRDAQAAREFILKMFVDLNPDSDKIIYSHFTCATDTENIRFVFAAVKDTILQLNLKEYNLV
Assay: High-throughput (96-well) competition binding assay at human platelet membranes
Conditions: for Ki: versus [³H]PSB-15900 (5 nM), high-throughput 96-well format, 37°C
Procedure: The experiments were performed in 50‐mM Tris–HCl buffer, pH 7.4. The final assay volume of 200 μl contained 5 μl of test compound in DMSO, 50 μl of [^3H]PSB‐15900 or [^3H]PSB‐16254, respectively, in buffer, 5 nM of final concentration, and 100 μl of human platelet membrane preparation (50 μg of protein) or intact human platelets (7.5 × 10^6 cells/vial). Non‐specific binding was determined in the presence of 5‐μM FR. The incubation was started by the addition of membrane preparation and was performed at 37°C for 1 hr with gentle shaking. It was terminated by rapid vacuum filtration through GF/C glass‐fibre filters using a Brandel 24‐well harvester. The filters were rinsed three times with approximately 3 ml each of ice‐cold Tris–HCl buffer, 50 mM, pH 7.4 containing 0.1% Tween 20 and 0.1% BSA, to separate bound from free radioligand. The filters were punched out and transferred to scintillation vials. Luma Safe® scintillation cocktail (2.5 ml) was added, and after 6 hr of incubation, the samples were counted for 1 min each, using a liquid scintillation counter (counting efficiency 53%). Experiments in the presence of GTP were additionally performed after preincubation of the membrane preparation with GTP for 1 hr. pIC50 and pKi values were calculated using equations for one‐site competition as implemented in GraphPad Prism 6.01 (GraphPad Inc., La Jolla, CA, USA).
Competition binding experiments were performed as described above (for incubation conditions, washing steps, and buffers) but on 96‐well plates using a Brandel 96‐well plate harvester with GF/C Unifilters (Perkin‐Elmer). After harvesting, 50 μl per cavity of Ultima Gold scintillation cocktail (Perkin‐Elmer) was added, and counting was performed as described above.

Compound: C=C1C(=O)N[C@@H](C)C(=O)N(C)[C@@H](C)C(=O)N[C@@H]([C@H](OC(=O)[C@@H](NC(=O)CC)[C@H](O)C(C)C)C(C)C)C(=O)N(C)[C@@H]([C@@H](C)OC)C(=O)O[C@H](C(C)C)[C@H](NC(C)=O)C(=O)O[C@H](Cc2ccccc2)C(=O)N1C [FR, FR900359] (Ac-[X1][dPhLac][NMeDha]A[NMeA][X1](Leu(3R-OH,Nα-propionyl))[NMeT](Me); ester 1-C)
- inhibition of radioligand binding (positive control) (1 μM, 96‐well plates): complete inhibition
- Ki (read-out: Ki): 6.56 ± 1.92 nM
- Ki (read-out: pKi (converted)): 6.46 nM
